Where a name gives a salt, the structure may show the parent alone.
Assays:
Type in all cases: biochemical
steroid sulfatase (STS) = target: T1, steroid sulfatase (STS) (Homo sapiens, UniProt P08842); test: 3H-DHEA scintillation counting; details: labelled compound; 5 µM DHEAS, pH 7.4, 37 °C
T1 sequence (P08842 22-583): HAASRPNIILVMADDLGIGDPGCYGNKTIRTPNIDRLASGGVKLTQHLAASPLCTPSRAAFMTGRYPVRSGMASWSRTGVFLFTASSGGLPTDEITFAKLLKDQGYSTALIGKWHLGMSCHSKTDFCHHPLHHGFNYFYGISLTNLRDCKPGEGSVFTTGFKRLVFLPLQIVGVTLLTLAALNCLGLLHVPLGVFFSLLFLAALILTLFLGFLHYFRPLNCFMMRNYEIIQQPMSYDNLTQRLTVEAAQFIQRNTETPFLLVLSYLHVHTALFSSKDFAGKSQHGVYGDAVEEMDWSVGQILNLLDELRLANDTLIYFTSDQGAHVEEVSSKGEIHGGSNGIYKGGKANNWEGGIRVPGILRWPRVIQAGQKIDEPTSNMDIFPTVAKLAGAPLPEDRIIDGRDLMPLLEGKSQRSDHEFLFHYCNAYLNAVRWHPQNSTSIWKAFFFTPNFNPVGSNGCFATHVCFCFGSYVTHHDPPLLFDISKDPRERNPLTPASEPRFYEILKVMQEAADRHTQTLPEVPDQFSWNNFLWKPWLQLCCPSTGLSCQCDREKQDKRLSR

aryl sulfatase G (ARSG) = target: T2, aryl sulfatase G (ARSG) (Homo sapiens, UniProt Q96EG1); test: colorimetric assay, […] nm; details: 8 mM pNCS, 0.5 M NaOAc, pH 5.6, 37 °C
T2 sequence (Q96EG1 17-525): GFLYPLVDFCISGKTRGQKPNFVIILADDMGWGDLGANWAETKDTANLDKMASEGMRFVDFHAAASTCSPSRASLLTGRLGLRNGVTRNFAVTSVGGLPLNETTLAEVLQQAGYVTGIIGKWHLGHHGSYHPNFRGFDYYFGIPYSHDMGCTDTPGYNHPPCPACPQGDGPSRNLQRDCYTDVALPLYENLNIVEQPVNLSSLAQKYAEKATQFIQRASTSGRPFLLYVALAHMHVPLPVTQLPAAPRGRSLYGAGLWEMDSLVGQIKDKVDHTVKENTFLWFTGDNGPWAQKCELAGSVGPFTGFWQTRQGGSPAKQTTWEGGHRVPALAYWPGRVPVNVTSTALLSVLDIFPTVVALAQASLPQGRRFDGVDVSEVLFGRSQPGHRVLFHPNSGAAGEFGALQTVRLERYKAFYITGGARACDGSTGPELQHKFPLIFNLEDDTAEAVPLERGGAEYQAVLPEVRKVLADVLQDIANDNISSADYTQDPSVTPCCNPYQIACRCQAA

KARS = target: T3, KARS (Klebsiella pneumoniae, UniProt Q9X759); test: colorimetric assay, […] nm; details: 8 mM pNCS, pH 7.5, room temperature
T3 sequence (Q9X759 21-577): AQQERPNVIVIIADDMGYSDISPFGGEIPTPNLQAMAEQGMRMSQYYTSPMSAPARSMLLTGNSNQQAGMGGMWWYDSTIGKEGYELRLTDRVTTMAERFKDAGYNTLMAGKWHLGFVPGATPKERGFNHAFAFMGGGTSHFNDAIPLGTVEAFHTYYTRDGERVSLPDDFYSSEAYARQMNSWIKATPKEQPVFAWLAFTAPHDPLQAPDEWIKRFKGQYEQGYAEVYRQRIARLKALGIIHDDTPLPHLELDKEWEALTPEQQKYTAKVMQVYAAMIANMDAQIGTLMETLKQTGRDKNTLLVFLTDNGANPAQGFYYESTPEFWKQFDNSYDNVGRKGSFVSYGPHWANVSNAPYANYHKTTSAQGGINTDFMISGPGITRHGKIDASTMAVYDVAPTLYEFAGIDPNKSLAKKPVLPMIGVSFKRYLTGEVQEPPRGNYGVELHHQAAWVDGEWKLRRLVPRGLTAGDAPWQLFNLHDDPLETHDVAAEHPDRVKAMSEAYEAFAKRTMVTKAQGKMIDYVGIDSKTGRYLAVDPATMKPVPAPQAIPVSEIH

PARS = PARS (Pseudomonas aeruginosa, UniProt P51691); test: colorimetric assay, […] nm; details: 8 mM pNCS, pH 8.5, room temperature
Sequence of PARS (P51691 2-536): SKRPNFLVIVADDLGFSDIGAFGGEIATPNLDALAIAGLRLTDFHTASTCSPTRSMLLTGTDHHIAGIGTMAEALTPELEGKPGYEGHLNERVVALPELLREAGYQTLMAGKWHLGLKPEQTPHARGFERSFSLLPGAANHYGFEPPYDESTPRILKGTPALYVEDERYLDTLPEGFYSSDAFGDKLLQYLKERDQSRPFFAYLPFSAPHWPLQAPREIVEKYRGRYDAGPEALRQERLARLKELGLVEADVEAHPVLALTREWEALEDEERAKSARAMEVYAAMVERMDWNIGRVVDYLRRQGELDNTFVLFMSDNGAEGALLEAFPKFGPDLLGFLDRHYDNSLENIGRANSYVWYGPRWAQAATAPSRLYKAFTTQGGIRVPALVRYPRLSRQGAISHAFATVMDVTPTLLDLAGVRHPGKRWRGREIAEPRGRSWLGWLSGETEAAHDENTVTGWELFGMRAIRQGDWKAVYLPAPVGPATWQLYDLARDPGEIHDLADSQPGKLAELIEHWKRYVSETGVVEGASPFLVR

SMILES	3H-DHEA scintillation counting (steroid sulfatase (STS))	colorimetric assay, 515 nm (aryl sulfatase G (ARSG))	colorimetric assay, 515 nm (KARS)	colorimetric assay, 515 nm (PARS)
C[C@]12CC[C@H](OS(=O)(=O)O)CC1=CC[C@@H]1[C@@H]2CC[C@]2(C)C(=O)CC[C@@H]12 [dehydroepiandrosterone-3-sulfate]	STS activity was determined using a radioactive dehydroepiandrosterone-3-sulfate (^3DHEAS) assay			
O=[N+]([O-])c1ccc(O)c(OS(=O)(=O)O)c1 [para-nitrocatechol sulfate]		KARS, PARS and ARSG activities were monitored using a para-nitrocatechol sulfate (pNCS) colorimetric assay	KARS, PARS and ARSG activities were monitored using a para-nitrocatechol sulfate (pNCS) colorimetric assay	KARS, PARS and ARSG activities were monitored using a para-nitrocatechol sulfate (pNCS) colorimetric assay

— PMC3396293 (Bioorganic & medicinal chemistry, 2011)
